Assay [1] relates to Rhizoctonia solani. Nature of the assay: Inhibitory concentrations of antimicrobial peptides and antibiotics against Rhizoctonia solani in vitro. The format is cell-based. Details: MIC, minimum concentration that completely inhibits growth of fungal cells: unit: μM. The note with it: for IC50: ± std, read-out: IC50, concentration that inhibits 50% growth of fungal cultures vs control.

For assay [2], the system named is phytopathogenic bacteria and fungi. As to the kind of experiment: Antibacterial and antifungal resistance of Arabidopsis expressing antimicrobial peptides. The note with it: carbonic anhydrase promoter, rice endochitinase signal peptide. The format is in vivo. The source says:
Including the acidic peptide is thus a preferred aspect of practicing the invention, although it may not be required. Tagging the βPTH precursor with EGFP greatly impaired antimicrobial activity in the mature peptide, even though EGFP was fused to the C-terminus of the acidic protein, the portion that was post-translationally cleaved.

For assay [3], the system named is fungal cultures. The note with it: literature values (Thevissen et al. 1996; Oard et al. 2004); read-out: IC50, concentration of a peptide that inhibits 50% growth of fungal cultures relative to control; cited from earlier work.
In assay [4] the test system is Neurospora crassa and Saccharomyces cerevisiae. Also noted: dose or concentration left out as unconfirmed. The following applies: concentration as low as; cited from earlier work.

The text below walks through data of US20130067616A1, “Plant Defensive Peptides” (priority 2010, published 2013).

Ends that are not written are not given here.

`CC[C@H](C)[C@H](NC(=O)CN)C(=O)NCC(=O)N[C@@H](C)C(=O)N[C@H](C(=O)N[C@@H](CC(C)C)C(=O)N[C@@H](CCCCN)C(=O)N[C@H](C(=O)N[C@@H](CC(C)C)C(=O)N[C@H](C(=O)N[C@H](C(=O)NCC(=O)N[C@@H](CC(C)C)C(=O)N1CCC[C@H]1C(=O)N[C@@H](C)C(=O)N[C@@H](CC(C)C)C(=O)N[C@H](C(=O)N[C@@H](CO)C(=O)N[C@@H](Cc1c[nH]c2ccccc12)C(=O)N[C@H](C(=O)N[C@@H](CCCCN)C(=O)N[C@@H](CCCNC(=N)N)C(=O)N[C@@H](CCCCN)C(=O)N[C@@H](CCCNC(=N)N)C(=O)N[C@@H](CCC(N)=O)C(=O)N[C@@H](CCC(N)=O)C(N)=O)[C@@H](C)CC)[C@@H](C)CC)[C@@H](C)O)[C@@H](C)O)C(C)C)C(C)C` [Melittin]: in assay [1], the “MIC, minimum concentration that completely inhibits growth of fungal cells” value turned out to be 13.1 µmol and the IC50 was 7100 ± 600 nM.

As for `C[C@@H]([C@H](N)C(=O)N[C@H](C(=O)O)[C@H]1O[C@@H](n2ccc(=O)[nH]c2=O)[C@H](O)[C@@H]1O)[C@H](O)c1ccc(O)cn1` [Nikkomycin Z], in assay [1], the “MIC, minimum concentration that completely inhibits growth of fungal cells” value came out at 4.5 µmol and the IC50 came out at 860 ± 100 nM.

Consider `C[C@@H]1[C@H](O)[C@@H](C)/C=C/C=C/CC/C=C/C=C/C=C/C=C/C(O[C@H]2O[C@H](C)[C@@H](O)[C@H](N)[C@@H]2O)CC2O[C@](O)(CC(O)C(O)CCC(O)CC(O)CC(O)CC(=O)O[C@H]1C)CC(O)C2C(=O)O` (some centres unmarked) [Nystatin], for which, in assay [1], the “MIC, minimum concentration that completely inhibits growth of fungal cells” value is 5.2 µmol and the IC50 is 1100 ± 300 nM.

Take “Cecropin B (KWKVFKKIEKMGRNIRNGIVKAGPAIAVLGEAKAL; ends and bridges not checked; UniProt P01508 27-61, looked up) [natural 35-residue peptide from the Cecropia moth]”: in assay [1], the “MIC, minimum concentration that completely inhibits growth of fungal cells” value is 9.8 µmol and the IC50 came out at 4600 ± 300 nM. In addition, the “Antimicrobial resistance in vivo of Arabidopsis expressing the peptide” value in assay [2] is “only antibacterial activity, not antifungal activity”.

In the case of Magainin II, in assay [1], the “MIC, minimum concentration that completely inhibits growth of fungal cells” value came to 30.2 µmol and the IC50 was 15700 ± 900 nM.

For the compound “α-Hordothionin (KSCCRSTLGRNCYNLCRVRGAQKLCAGVCRCKLTSSGKCPTGFPK) [barley seed-specific thionin, GenBank X05901]”, the IC50 in assay [3] is 1000 nM.

Consider α-purothionin, for which the “Inhibition of fungal growth” value in assay [4] is reported as “up to 50%”.

Regarding β-Purothionin [βPTH], in assay [1], the “MIC, minimum concentration that completely inhibits growth of fungal cells” value is 5.02 µmol and the IC50 was 1140 ± 400 nM. Moreover, in assay [2], the “Antimicrobial resistance in vivo of Arabidopsis expressing the peptide” value is “the greatest antibacterial and antifungal resistance”. Further, the IC50 in assay [3] is 1100 nM.
